Assay results: ChEMBL document CHEMBL4376803, “Recent Advances in the Exploration of Therapeutic Analogues of Gramicidin S, an Old but Still Potent Antimicrobial Peptide” (J Med Chem, 2019)
In brackets after ≈: the same amount, converted by molar mass. Numbered stars: 1 amine (or outer) side, 2 acyl side, 3 side chain; on linkers, the order of the positions; unused ones are H or OH. Square brackets hold non-standard residues; d marks the D form. Peptide text beside a SMILES is read from it. X1 = Cc1nc([C@@H](Cc2ccccc2)N[*:1])c(C(=O)[*:2])s1; Orn = NCCC[C@H](N)C(=O)O

Tests used:
[1] = Haemolytic activity in human RBC after 4 hrs; type: ADME, cell-based, Erythrocyte; conditions: human red blood cells
[2] = Therapeutic index, ratio of HD100 for hemolytic activity in human erythrocytes to MIC against Pseudomonas aeruginosa ATCC 27853; type: toxicity, cell-based; conditions: read-out: TI
Erythrocyte = experiment: (§1) Haemolytic activity in human erythrocytes; type: ADME, cell-based; conditions: erythrocyte
Escherichia coli [3] = experiment: Antibacterial activity against Escherichia coli ATCC 25922; type: functional
[4] = Therapeutic index, ratio of HD100 for hemolytic activity in human erythrocytes to MIC against Enterococcus faecalis ATCC 29212; type: toxicity, cell-based; conditions: read-out: TI
[5] = Therapeutic index, ratio of HD100 for hemolytic activity in human erythrocytes to MIC against Staphylococcus aureus ATCC 29213; type: toxicity, cell-based; conditions: read-out: TI
[6] = Therapeutic index, ratio of HD100 for hemolytic activity in human erythrocytes to MIC against Escherichia coli ATCC 25922; type: toxicity, cell-based; conditions: read-out: TI
Pseudomonas aeruginosa [7] = experiment: Antibacterial activity against Pseudomonas aeruginosa ATCC 27853; type: functional
Staphylococcus aureus [8] = experiment: Antibacterial activity against Staphylococcus aureus ATCC 29213; type: functional
Enterococcus faecalis [9] = experiment: Antibacterial activity against Enterococcus faecalis ATCC 29212; type: functional
Staphylococcus aureus [10] = experiment: Antibacterial activity against Staphylococcus aureus NBRC 12732; type: functional
Escherichia coli [11] = experiment: Antibacterial activity against Escherichia coli NBRC 12734; type: functional
Pseudomonas aeruginosa [12] = experiment: Antibacterial activity against Pseudomonas aeruginosa NBRC 3080; type: functional
Bacillus subtilis [13] = experiment: Antibacterial activity against Bacillus subtilis NBRC 3513; type: functional
Priestia megaterium = experiment: Antibacterial activity against Bacillus megaterium ATCC 19213; type: functional
[14] = as §1; type: ADME, cell-based, Erythrocyte; conditions: human erythrocytes
Staphylococcus aureus [15] = experiment: Antibacterial activity against Staphylococcus aureus ATCC 49975 after 16 to 20 hrs by broth microdilution method; type: functional
Pseudomonas aeruginosa [16] = experiment: Antibacterial activity against Pseudomonas aeruginosa ATCC 27853 incubated for 24 hrs; type: functional; conditions: ATCC 27853, 24 h
Staphylococcus aureus [17] = experiment: Antibacterial activity against Staphylococcus aureus ATCC 29213 after 24 hrs; type: functional; conditions: ATCC 29213, 24 h
Enterococcus faecalis [18] = experiment: Antibacterial activity against Enterococcus faecalis ATCC 29212 after 24 hrs; type: functional; conditions: ATCC 29212, 24 h
Staphylococcus aureus [19] = experiment: Antibacterial activity against methicillin-resistant Staphylococcus aureus NT 1110301981H-T034-PVL+ incubated for 24 hrs; type: functional
Escherichia coli [20] = experiment: Antibacterial activity against Escherichia coli ATCC 25922 after 24 hrs; type: functional; conditions: ATCC 25922, 24 h
[21] = Haemolytic activity in human erythrocytes at 100 ug/ml after 30 mins relative to control; type: ADME, cell-based, Erythrocyte; conditions: read-out: Activity
Staphylococcus aureus [22] = experiment: Antibacterial activity against Staphylococcus aureus ATCC 6538 incubated for 48 hrs; type: functional; conditions: ATCC 6538, 48 h
Bacillus subtilis [23] = experiment: Antibacterial activity against Bacillus subtilis CIP 52.65 incubated for 48 hrs; type: functional; conditions: CIP 52.65, 48 h
Pseudomonas aeruginosa [24] = experiment: Antibacterial activity against Pseudomonas aeruginosa ATCC 9027 incubated for 48 hrs; type: functional; conditions: ATCC 9027, 48 h
Escherichia coli [25] = experiment: Antibacterial activity against Escherichia coli ATCC 8739 incubated for 48 hrs; type: functional; conditions: ATCC 8739, 48 h
Staphylococcus xylosus = experiment: Antibacterial activity against Staphylococcus xylosus; type: functional
Staphylococcus aureus [26] = experiment: Antibacterial activity against Staphylococcus aureus; type: functional
[27] = tested on: Staphylococcus epidermidis; experiment: Antibacterial activity against Staphylococcus epidermidis; type: functional
[28] = Hemolytic activity in sheep erythrocytes; type: ADME, cell-based, Ovis aries, Erythrocyte
[29] = tested on: Staphylococcus epidermidis; experiment: Antibacterial activity against Staphylococcus epidermidis ATCC 12228 incubated for 24 hrs; type: functional; conditions: ATCC 12228, 24 h
Bacillus cereus = experiment: Antibacterial activity against Bacillus cereus ATCC 11778 incubated for 24 hrs; type: functional; conditions: ATCC 11778, 24 h
Klebsiella pneumoniae = experiment: Antibacterial activity against Klebsiella pneumonia K6 ATCC 700603 after overnight incubation by broth microdilution method; type: functional; conditions: 700603 K6
Salmonella = experiment: Antibacterial activity against Salmonella after overnight incubation by broth microdilution method; type: functional
Staphylococcus aureus [30] = experiment: Antibacterial activity against multidrug-resistant Staphylococcus aureus ATCC BAA-44 after overnight incubation by broth microdilution method; type: functional
[31] = Haemolytic activity in human RBC incubated for 1 hr; type: ADME, cell-based, Erythrocyte; conditions: human red blood cells
[32] = tested on: Staphylococcus epidermidis; experiment: Antibacterial activity against Staphylococcus epidermidis ATCC 27626 after overnight incubation by broth microdilution method; type: functional
Staphylococcus aureus [33] = experiment: Antibacterial activity against vancomycin-resistant Staphylococcus aureus Mu50/ATCC 700699 after overnight incubation by broth microdilution method; type: functional
Escherichia coli [34] = experiment: Antibacterial activity against Escherichia coli K-12 ATCC 29181 after overnight incubation by broth microdilution method; type: functional

NCCC[C@@H]1NC(=O)[C@H](C23CC4CC(CC(C4)C2)C3)NC(=O)[C@H](CCCN)NC(=O)[C@@H]2CCCN2C(=O)[C@@H](Cc2ccccc2)NC(=O)[C@H](CCCN)NC(=O)[C@H](C23CC4CC(CC(C4)C2)C3)NC(=O)[C@H](CCCN)NC(=O)[C@@H]2CCCN2C(=O)[C@@H](Cc2ccccc2)NC1=O [listing 1 of 2 here]
HC50 at 4 h [1]: 107 µg/mL

CC(C)C[C@@H]1NC(=O)[C@H](CCCN)NC(=O)[C@H](C(C)C)NC(=O)[C@@H]2CCCN2C(=O)[C@@H](Cc2ccccc2)NC(=O)[C@H](CC(C)C)NC(=O)[C@H](CCCN)NC(=O)[C@H](C(C)C)NC(=O)[C@H](CCCN)NC(=O)[C@H](CC(C)C)NC(=O)[C@H]2CC[C@H](OCc3ccccc3)[C@@H](CNC(=O)[C@H](C(C)C)NC(=O)[C@H](CCCN)NC1=O)O2
selectivity ratio [2]: 7.8 | Activity (Erythrocyte): 62.5 µg/mL | MIC (Escherichia coli [3]): 16 µg/mL (≈ 10.1 µM) | selectivity ratio [4]: 7.8 | selectivity ratio [5]: 15.6 | selectivity ratio [6]: 3.9 | MIC (Pseudomonas aeruginosa [7]): 8 µg/mL (≈ 5.05 µM) | MIC (Staphylococcus aureus [8]): 4 µg/mL (≈ 2.52 µM) | MIC (Enterococcus faecalis [9]): 8 µg/mL (≈ 5.05 µM)

NCCC[C@@H]1NC(=O)[C@H](CCCN)NC(=O)[C@@H]2CCCN2C(=O)[C@@H](Cc2ccccc2)NC(=O)[C@H](CCCN)NC(=O)[C@H](CCCN)NC(=O)[C@H](CCCN)NC(=O)[C@@H]2CCCN2C(=O)[C@@H](Cc2ccccc2)NC(=O)[C@H](CCCN)NC1=O [listing 1 of 2 here]
MIC (Staphylococcus aureus [10]): 50 µg/mL (≈ 42.6 µM) | MIC (Escherichia coli [11]): > 100 µg/mL | MIC (Pseudomonas aeruginosa [12]): > 100 µg/mL | MIC (Bacillus subtilis [13]): 12.5 µg/mL (≈ 10.7 µM) | MIC (Priestia megaterium): 12.5 µg/mL (≈ 10.7 µM)

CC(C)C[C@@H]1NC(=O)[C@H](CCCN)NC(=O)[C@H](C(C)C)NC(=O)[C@@H]2CCCN2C(=O)[C@@H](Cc2ccccc2)NC(=O)[C@H](CC(C)C)NC(=O)[C@H](CCCN)NC(=O)[C@H](C(C)C)NC(=O)C2=CC3=C4CCCC4=C4C=C(SC4(C)C3(C)S2)C(=O)NNC1=O (stereo partly specified) [listing 1 of 2 here]
HC50 [14]: 58 µg/mL

CC(C)C[C@@H]1NC(=O)[C@@H](CCCN)NC(=O)[C@H](C(C)C)NC(=O)c2cccc(c2)/N=N\c2ccc(cc2)CNC(=O)[C@H](CCCN)NC(=O)[C@H](C(C)C)NC(=O)[C@@H]2CCCN2C(=O)[C@@H](Cc2ccccc2)NC1=O
MIC (Staphylococcus aureus [15]): 64 µg/mL (≈ 62.7 µM)

CC(C)[C@@H]1NC(=O)[C@H](CCCN)NC(=O)[C@@H]2CCCN2C(=O)[C@@H](Cc2ccccc2)NC(=O)[C@H](CCCN)NC(=O)[C@@H](C(C)C)NC(=O)[C@H](CCCN)NC(=O)[C@@H]2CCCN2C(=O)[C@@H](Cc2ccccc2)NC(=O)[C@H](CCCN)NC1=O
MIC (Pseudomonas aeruginosa [16]): > 64 µg/mL | MIC (Staphylococcus aureus [17]): > 64 µg/mL | MIC (Enterococcus faecalis [18]): > 64 µg/mL | MIC (Staphylococcus aureus [19]): > 64 µg/mL | MIC (Escherichia coli [20]): > 64 µg/mL

NCCC[C@@H]1NC(=O)[C@H](C23CC4CC(CC(C4)C2)C3)NC(=O)[C@@H]2CCCN2C(=O)[C@@H](Cc2ccccc2)NC(=O)[C@H](C23CC4CC(CC(C4)C2)C3)NC(=O)[C@H](CCCN)NC(=O)[C@H](C23CC4CC(CC(C4)C2)C3)NC(=O)[C@@H]2CCCN2C(=O)[C@@H](Cc2ccccc2)NC(=O)[C@H](C23CC4CC(CC(C4)C2)C3)NC1=O
HC50 at 4 h [1]: 7.55 µg/mL

Cc1nc2c(s1)C(=O)N[C@@H](C(C)C)C(=O)N[C@@H](CCCN)C(=O)N[C@@H](CC(C)C)C(=O)N[C@H](Cc1ccccc1)c1nc(C)sc1C(=O)N[C@@H](C(C)C)C(=O)N[C@@H](CCCN)C(=O)N[C@@H](CC(C)C)C(=O)N[C@@H]2Cc1ccccc1 (cyclo(L[X1]V[Orn]L[X1]V[Orn]))
hemolysis at 0.5 h, 100 ug/ml [21]: 14% | MIC (Staphylococcus aureus [22]): 4.68 µg/mL (≈ 4.1 µM) | MIC (Bacillus subtilis [23]): 3.12 µg/mL (≈ 2.74 µM) | MIC (Pseudomonas aeruginosa [24]): > 50 µg/mL | MIC (Escherichia coli [25]): 25 µg/mL (≈ 21.9 µM)

NCCC[C@@H]1NC(=O)[C@H](C23CC4CC(CC(C4)C2)C3)NC(=O)[C@H](CCCN)NC(=O)[C@@H]2CCCN2C(=O)[C@@H](Cc2ccccc2)NC(=O)[C@H](CCCN)NC(=O)[C@H](C23CC4CC(CC(C4)C2)C3)NC(=O)[C@H](CCCN)NC(=O)[C@@H]2CCCN2C(=O)[C@@H](Cc2ccccc2)NC1=O [listing 2 of 2 here]
MIC (Pseudomonas aeruginosa [16]): 16 µg/mL (≈ 12.1 µM) | MIC (Staphylococcus aureus [17]): 8 µg/mL (≈ 6.03 µM) | MIC (Enterococcus faecalis [18]): 8 µg/mL (≈ 6.03 µM) | MIC (Staphylococcus aureus [19]): 8 µg/mL (≈ 6.03 µM) | MIC (Escherichia coli [20]): 8 µg/mL (≈ 6.03 µM)

CC(C)C[C@@H]1NC(=O)[C@H](CCCN)NC(=O)[C@H](C(C)C)NC(=O)[C@@H]2CCCN2C(=O)[C@@H](Cc2ccccc2)NC(=O)[C@H](CC(C)C)NC(=O)[C@H](CCCN)NC(=O)[C@H](C(C)C)NC(=O)C2=CC3=C4CCCC4=C4C=C(SC4(C)C3(C)S2)C(=O)NNC1=O (stereo partly specified) [listing 2 of 2 here]
MIC (Staphylococcus xylosus): 32 µg/mL (≈ 25.8 µM) | MIC (Staphylococcus aureus [26]): 16 µg/mL (≈ 12.9 µM) | MIC [27]: 32 µg/mL (≈ 25.8 µM)

NCCC[C@@H]1NC(=O)[C@H](CCCN)NC(=O)[C@@H]2CCCN2C(=O)[C@@H](Cc2ccccc2)NC(=O)[C@H](CCCN)NC(=O)[C@H](CCCN)NC(=O)[C@H](CCCN)NC(=O)[C@@H]2CCCN2C(=O)[C@@H](Cc2ccccc2)NC(=O)[C@H](CCCN)NC1=O [listing 2 of 2 here]
HC50 [28]: > 200 µg/mL

CC(C)C[C@@H]1NC(=O)[C@@H](CCCN)NC(=O)[C@H](C(C)C)NC(=O)c2cccc(c2)/N=N/c2ccc(cc2)CNC(=O)[C@H](CCCN)NC(=O)[C@H](C(C)C)NC(=O)[C@@H]2CCCN2C(=O)[C@@H](Cc2ccccc2)NC1=O
MIC (Staphylococcus aureus [15]): 256 µg/mL (≈ 251 µM)

CC(C)C[C@@H]1NC(=O)[C@H](CCCN)NC(=O)[C@H](C(C)C)NC(=O)[C@@H]2CCCN2C(=O)[C@@H](Cc2ccccc2)NC(=O)[C@H](CC(C)C)NC(=O)[C@H](CCCN)NC(=O)[C@H](C(C)C)NC(=O)[C@H]2CC[C@H](OCc3ccccc3)[C@@H](CNC1=O)O2
MIC [29]: 8 µg/mL (≈ 6.99 µM) | MIC (Pseudomonas aeruginosa [16]): > 64 µg/mL | MIC (Staphylococcus aureus [17]): 16 µg/mL (≈ 14 µM) | MIC (Enterococcus faecalis [18]): 16 µg/mL (≈ 14 µM) | MIC (Bacillus cereus): 8 µg/mL (≈ 6.99 µM) | MIC (Escherichia coli [20]): 32 µg/mL (≈ 28 µM)

CC(C)C[C@@H]1NC(=O)[C@H](CCCN)NC(=O)[C@H](C(C)C)NC(=O)[C@H](C)N(C)C(=O)[C@@H](Cc2ccccc2)NC(=O)[C@H](C)N(C)C(=O)[C@@H](CCCN)NC(=O)[C@H](C(C)C)NC(=O)[C@@H]2CCCN2C(=O)[C@@H](Cc2ccccc2)NC1=O
MIC (Klebsiella pneumoniae): 7 µg/mL (≈ 6.36 µM) | MIC (Salmonella): 28 µg/mL (≈ 25.4 µM) | MIC (Staphylococcus aureus [30]): 7 µg/mL (≈ 6.36 µM) | HC50 at 1 h [31]: 69.2 µg/mL | MIC [32]: 1.8 µg/mL (≈ 1.63 µM) | MIC (Staphylococcus aureus [33]): 3.5 µg/mL (≈ 3.18 µM) | MIC (Escherichia coli [34]): 28 µg/mL (≈ 25.4 µM)
